Experimental data from US9856279B2 (AGIOS PHARMACEUTICALS, INC, priority 2011, dated 2018).

Target: IDH1 R132H (Homo sapiens, UniProt O75874, R132H)
Experiment: Assay for IDH1 R132H inhibitors (NADPH/aKG, resazurin detection)
Assay type: biochemical
Conditions: Table 3; enzyme assay, 50 minutes at room temperature; read-out: IC50 (IDH1 R132H Inhibition)
How it was run: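 Compound added to substrate mix (8 uM NADPH, 2 mM aKG), then enzyme mix (0.2 μg/ml IDH1 R132H); 50 min RT in 20 mM Tris pH 7.5, 150 mM NaCl, 10 mM MgCl2, 0.03% BSA. Resazurin detection mix (30 μM) 5 min RT; resorufin fluorescence Ex544/Em590.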

Sequence of IDH1 R132H (O75874 whole entry R132H): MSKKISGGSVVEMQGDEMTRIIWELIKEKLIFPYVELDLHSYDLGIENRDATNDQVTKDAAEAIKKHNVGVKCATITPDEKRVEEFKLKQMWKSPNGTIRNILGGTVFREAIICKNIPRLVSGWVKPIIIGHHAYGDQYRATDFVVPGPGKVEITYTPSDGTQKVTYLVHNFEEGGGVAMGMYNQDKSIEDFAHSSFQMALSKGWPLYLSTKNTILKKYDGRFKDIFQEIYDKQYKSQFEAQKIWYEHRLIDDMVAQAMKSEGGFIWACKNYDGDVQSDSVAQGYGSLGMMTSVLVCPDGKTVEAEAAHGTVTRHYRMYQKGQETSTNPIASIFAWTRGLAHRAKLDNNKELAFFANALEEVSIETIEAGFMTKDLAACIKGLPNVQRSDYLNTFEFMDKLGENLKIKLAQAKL

Structure (SMILES)	IC50 [nM]
COCCC(=O)N1CCN(c2nc(C(C)C)c(-c3cncnc3)cc2C#N)C[C@H]1C [Compound 210, (R)-6-isopropyl-2-(4-(3-methoxypropanoyl)-3-methylpiperazin-1-yl)-5-0γ(pyrimidin-5-yl)nicotinonitrile]	5000 to 15000
COCCC(=O)N1CCN(c2nc(C(C)C)c(-c3ccc4ccccc4c3)cc2C#N)C[C@H]1C [Compound 211, (R)-6-isopropyl-2-(4-(3-methoxypropanoyl)-3-methylpiperazin-1-yl)-5-(naphthalen-2-yl)nicotinonitrile]	1000 to 5000
COCCC(=O)N1CCN(c2nc(C(C)C)c(-c3cccc(OC)c3)cc2C#N)C[C@H]1C [Compound 212, (R)-6-isopropyl-5-(3-methoxyphenyl)-2-(4-(3-methoxypropanoyl)-3-methylpiperazin-1-yl)nicotinonitrile]	≤ 1000
COCCC(=O)N1CCN(c2nc(C(C)C)c(-c3ccncc3)cc2C#N)C[C@H]1C [Compound 213, (R)-2-isopropyl-6-(4-(3-methoxypropanoyl)-3-methylpiperazin-1-yl)-3,4′-bipyridine-5-carbonitrile]	1000 to 5000
COCCC(=O)N1CCN(c2nc(C(C)C)c(-c3ccc(OC)cc3)cc2C#N)C[C@H]1C [Compound 214, (R)-6-isopropyl-5-(4-methoxyphenyl)-2-(4-(3-methoxypropanoyl)-3-methylpiperazin-1-yl)nicotinonitrile]	1000 to 5000
COCCC(=O)N1CCN(c2nc(C(C)C)c(-c3ccc(Cl)cc3)cc2C#N)C[C@H]1C [Compound 215, (R)-5-(4-chlorophenyl)-6-isopropyl-2-(4-(3-methoxypropanoyl)-3-methylpiperazin-1-yl)nicotinonitrile]	1000 to 5000
CCc1ccc(-c2cc(C#N)c(N3CCN(C(=O)CCOC)[C@H](C)C3)nc2C(C)C)cc1 [Compound 216, 5-(4-ethylphenyl)-6-isopropyl-2-(4-(3-methoxypropanoyl)-3-methylpiperazin-1-yl)nicotinonitrile]	1000 to 5000
COCCC(=O)N1CCN(c2nc(C(C)C)c(-c3cccc4ccccc34)cc2C#N)C[C@H]1C [Compound 217, (R)-6-isopropyl-2-(4-(3-methoxypropanoyl)-3-methylpiperazin-1-yl)-5-(naphthalen-1-yl)nicotinonitrile]	1000 to 5000
COCCC(=O)N1CCN(c2nc(C(C)C)c(-c3cccc(Cl)c3)cc2C#N)C[C@H]1C [Compound 218, (R)-5-(3-chlorophenyl)-6-isopropyl-2-(4-(3-methoxypropanoyl)-3-methylpiperazin-1-yl)nicotinonitrile]	1000 to 5000
COCCC(=O)N1CCN(c2nc(C(C)C)c(-c3ccc(C)c(C)c3)cc2C#N)C[C@H]1C [Compound 220, (R)-5-(3,4-dimethylphenyl)-6-isopropyl-2-(4-(3-methoxypropanoyl)-3-methylpiperazin-1-yl)nicotinonitrile]	1000 to 5000
COCCC(=O)N1CCN(c2nc(C(C)C)c(-c3ccc(C)c(F)c3)cc2C#N)C[C@H]1C [Compound 221, (R)-5-(3-fluoro-4-methylphenyl)-6-isopropyl-2-(4-(3-methoxypropanoyl)-3-methylpiperazin-1-yl)nicotinonitrile]	1000 to 5000
COCCC(=O)N1CCN(c2nc(C(C)C)c(-c3ccccc3)cc2C#N)C[C@H]1C [Compound 222, (R)-6-isopropyl-2-(4-(3-methoxypropanoyl)-3-methylpiperazin-1-yl)-5-phenylnicotinonitrile]	≤ 1000
COCCC(=O)N1CCN(c2nc(C(C)C)c(-c3ccc(OC)c(OC)c3)cc2C#N)C[C@H]1C [Compound 223, (R)-5-(3,4-dimethoxyphenyl)-6-isopropyl-2-(4-(3-methoxypropanoyl)-3-methylpiperazin-1-yl)nicotinonitr-ile]	≤ 1000
COCCC(=O)N1CCN(c2nc(C(C)C)c(-c3ccc4c(c3)OCO4)cc2C#N)C[C@H]1C [Compound 224, (R)-5-(benzo[d][1,3]dioxol-5-yl)-6-isopropyl-2-(4-(3-methoxypropanoyl)-3-methylpiperazin-1-yl)nicotinonitrile]	≤ 1000
COCCC(=O)N1CCN(c2nc(C3CC3)c(-c3cccc(C)c3)cc2C#N)C[C@H]1C [Compound 225, (R)-6-cyclopropyl-2-(4-(3-methoxypropanoyl)-3-methylpiperazin-1-yl)-5-m-tolylnicotinonitrile]	≤ 1000
COCCC(=O)N1CCN(c2nc(C3CC3)c(-c3ccc(C(F)(F)F)cc3)cc2C#N)C[C@H]1C [Compound 226, (R)-6-cyclopropyl-2-(4-(3-methoxypropanoyl)-3-methylpiperazin-1-yl)-5-(4-(trifluoromethyl)phenyl)nicotinonitrile]	≤ 1000

More lines, now with the values ahead:

IC50 [nM]	Structure (SMILES)
≤ 1000	COCCC(=O)N1CCN(c2nc(C3CC3)c(-c3ccc(OC(F)(F)F)cc3)cc2C#N)C[C@H]1C [Compound 227, (R)-6-cyclopropyl-2-(4-(3-methoxypropanoyl)-3-methylpiperazin-1-yl)-5-(4-(trifluoromethoxy)phenyl)nicotinonitrile]
1000 to 5000	COCCC(=O)N1CCN(c2nc(C3CC3)c(-c3cccc(OC(F)(F)F)c3)cc2C#N)C[C@H]1C [Compound 228, (R)-6-cyclopropyl-2-(4-(3-methoxypropanoyl)-3-methylpiperazin-1-yl)-5-(3-(trifluoromethoxy)phenyl)-nicotinonitrile]
≤ 1000	COCCC(=O)N1CCN(c2nc(C3CC3)c(-c3cccc(F)c3)cc2C#N)C[C@H]1C [Compound 229, (R)-6-cyclopropyl-5-(3-fluorophenyl)-2-(4-(3-methoxypropanoyl)-3-methylpiperazin-1-yl)nicotinonitrile]
1000 to 5000	COCCC(=O)N1CCN(c2nc(C(C)C)c(-c3cccc(OC(F)(F)F)c3)cc2C#N)C[C@H]1C [Compound 230, (R)-6-isopropyl-2-(4-(3-methoxypropanoyl)-3-methylpiperazin-1-yl)-5-(3-(trifluoromethoxy)phenyl)nicotinonitrile]
1000 to 5000	COCCC(=O)N1CCN(c2nc(C(C)C)c(-c3cccc(F)c3)cc2C#N)C[C@H]1C [Compound 231, (R)-5-(3-fluorophenyl)-6-isopropyl-2-(4-(3-methoxypropanoyl)-3-methylpiperazin-1-yl)nicotinonitrile]
1000 to 5000	COCCC(=O)N1CCN(c2nc(C(C)C)c(-c3ccc(OC(F)(F)F)cc3)cc2C#N)C[C@H]1C [Compound 232, (R)-6-isopropyl-2-(4-(3-methoxypropanoyl)-3-methylpiperazin-1-yl)-5-(4-(trifluoromethoxy)phenyl)nicotinonitrile]
1000 to 5000	COCCC(=O)N1CCN(c2nc(C(C)C)c(-c3ccc4c(c3)OCCO4)cc2C#N)C[C@H]1C [Compound 233, (R)-5-(2,3-dihydrobenzo[b][1,4]dioxin-6-yl)-6-isopropyl-2-(4-(3-methoxypropanoyl)-3-methylpiperazin-1-yl)nicotinonitrile]
≤ 1000	COCCC(=O)N1CCN(c2nc(C(C)C)c(-c3cncc4ccccc34)cc2C#N)C[C@H]1C [Compound 234, (R)-6-isopropyl-5-(isoquinolin-4-yl)-2-(4-(3-methoxypropanoyl)-3-methylpiperazin-1-yl)nicotinonitrile]
≤ 1000	COCCC(=O)N1CCN(c2nc(C3CC3)c(-c3ccc(C)c(F)c3)cc2C#N)C[C@H]1C [Compound 235, (R)-6-cyclopropyl-5-(3-fluoro-4-methylphenyl)-2-(4-(3-methoxypropanoyl)-3-methylpiperazin-1-yl)nicotinonitrile]
